Consider 7 molecules from ChEMBL document CHEMBL1138246, “Ester prodrugs of cyclic 1-(S)-[3-hydroxy-2-(phosphonomethoxy)propyl]-5-azacytosine: synthesis and antiviral activity” (J Med Chem, 2007).

In brackets after ≈: the same amount, converted by molar mass.

The test system of this test is Vaccinia virus. The format is functional, organism-based. Conditions: Orthopoxvirus vaccinia, Lederle, HEL.
In the case of `Nc1ncn(C[C@@H](CO)OCP(=O)(O)O)c(=O)n1`, the EC50 (in general, the concentration that produces a half-maximal response) amounted to 2.16 µg/mL (≈ 7.71 µM).
The molecule `Nc1ncn(C[C@H]2COP(=O)(O)CO2)c(=O)n1` yielded an EC50 of 2.12 µg/mL (≈ 8.09 µM).
Take `CCCCCCCCCCCCCCCCOCCOP1(=O)CO[C@@H](Cn2cnc(N)nc2=O)CO1` (some centres not stated): the EC50 is 0.037 µg/mL (≈ 0.0697 µM).
For the molecule `CCCCCCCCCCCCCCCCCCOP1(=O)CO[C@@H](Cn2cnc(N)nc2=O)CO1` (some centres not stated), the EC50 came out at 4.45 µg/mL (≈ 8.65 µM).
With `CC(C)(C)C(=O)OCOP1(=O)CO[C@@H](Cn2cnc(N)nc2=O)CO1` (some centres not stated) the figure was 0.79 µg/mL (≈ 2.1 µM); with `Nc1ccn(C[C@@H](CO)OCP(=O)(O)O)c(=O)n1.O.O` [CIDOFOVIR], 3.09 µg/mL; with `Nc1ccn(C[C@H]2COP(=O)(O)CO2)c(=O)n1` [CYCLIC CIDOFOVIR], 2.78 µg/mL (≈ 10.6 µM).
